Experimental data reported in ChEMBL document CHEMBL1138445, “Design and synthesis of potent inhibitors of cholesteryl ester transfer protein (CETP) exploiting a 1,2,3,4-tetrahydroquinoline platform” (Bioorg Med Chem Lett, 2009).

Key:
[1] = target: T1, Cholesteryl ester transfer protein (Homo sapiens) (UniProt P11597); assay: Inhibition of human plasma derived CETP relative to control; set-up: concentration or dose not given beside the values; settings: concentration not given here
T1 sequence (whole entry): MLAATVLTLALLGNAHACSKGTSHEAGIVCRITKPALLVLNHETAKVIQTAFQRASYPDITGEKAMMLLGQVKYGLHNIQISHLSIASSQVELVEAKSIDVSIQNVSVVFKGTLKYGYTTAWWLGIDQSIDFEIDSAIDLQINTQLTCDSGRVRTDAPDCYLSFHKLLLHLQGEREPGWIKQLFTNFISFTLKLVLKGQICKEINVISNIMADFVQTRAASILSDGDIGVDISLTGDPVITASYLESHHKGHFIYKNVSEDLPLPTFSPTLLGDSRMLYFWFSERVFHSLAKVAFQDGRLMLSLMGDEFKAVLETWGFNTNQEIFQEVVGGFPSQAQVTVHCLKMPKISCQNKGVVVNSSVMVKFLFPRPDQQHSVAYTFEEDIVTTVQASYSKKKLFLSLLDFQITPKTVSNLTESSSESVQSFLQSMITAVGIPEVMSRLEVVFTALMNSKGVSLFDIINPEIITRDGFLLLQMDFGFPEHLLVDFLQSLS

[2] = target: T2, Cholesteryl ester transfer protein (Homo sapiens, UniProt P11597); assay: Inhibition of human plasma derived CETP; type: cell-free
T2 sequence (P11597 whole entry): T1 sequence (whole entry)

SMILES	inhibition [1] [%]	IC50 [2] [nM]
O[C@@H](CN1c2cccc(-c3cccc(OC(F)(F)F)c3)c2CC[C@H]1c1cccc(OC(F)(F)F)c1)C(F)(F)F	20	
O[C@H](CN1c2cccc(-c3cccc(OC(F)(F)F)c3)c2CC[C@H]1c1cccc(OC(F)(F)F)c1)C(F)(F)F	46	
N#Cc1cccc(-c2cccc3c2CCC(c2cccc(OC(F)(F)C(F)F)c2)N3CC(O)C(F)(F)F)c1 (single isomer, unassigned; diastereomer 1) [listing 1 of 2 here]		235
CCC1CCc2c(-c3cccc(OC(F)(F)F)c3)cccc2N1CC(O)C(F)(F)F (single isomer, unassigned; diastereomer 1)	44	
CCc1cc(Oc2cccc3c2CCC(c2cccc(OC(F)(F)C(F)F)c2)N3CC(O)C(F)(F)F)ccc1Cl (single isomer, unassigned; diastereomer 1)	62	
COCC(O)CN1c2cccc(-c3cccc(OC(F)(F)F)c3)c2CCC1c1cccc(OC(F)(F)F)c1 (single isomer, unassigned; diastereomer 1)	13	
OC(CCl)CN1c2cccc(-c3cccc(OC(F)(F)F)c3)c2CCC1c1cccc(OC(F)(F)F)c1 (single isomer, unassigned; diastereomer 1)	56	
OC(CF)CN1c2cccc(-c3cccc(OC(F)(F)F)c3)c2CCC1c1cccc(OC(F)(F)F)c1 (single isomer, unassigned; diastereomer 1)	70	
OC(CN1c2cccc(-c3cccc(C(F)(F)F)c3)c2CCC1c1cccc(OC(F)(F)C(F)F)c1)C(F)(F)F (single isomer, unassigned; diastereomer 1)	93	
OC(CN1c2cccc(-c3cccc(OC(F)(F)F)c3)c2CCC1C1CCCCC1)C(F)(F)F (single isomer, unassigned; diastereomer 1)	11	
OC(CN1c2cccc(-c3cccc(OC(F)(F)F)c3)c2CCC1c1ccc(OC(F)(F)C(F)F)cc1)C(F)(F)F (single isomer, unassigned; diastereomer 1)	5	
OC(CN1c2cccc(-c3cccc(OC(F)(F)F)c3)c2CCC1c1ccccc1)C(F)(F)F (single isomer, unassigned; diastereomer 1)	21	
OC(CN1c2cccc(-c3cccc(OC(F)(F)F)c3)c2CCC1c1cccs1)C(F)(F)F (single isomer, unassigned; diastereomer 1)	28	
OC(CN1c2cccc(-c3cccc(Cl)c3Cl)c2CCC1c1cccc(OC(F)(F)C(F)F)c1)C(F)(F)F (single isomer, unassigned; diastereomer 2) [listing 1 of 2 here]		400
CC(C)C(O)CN1c2cccc(-c3cccc(OC(F)(F)F)c3)c2CCC1c1cccc(OC(F)(F)F)c1 (single isomer, unassigned; diastereomer 2)	22	
CCC1CCc2c(-c3cccc(OC(F)(F)F)c3)cccc2N1CC(O)C(F)(F)F (single isomer, unassigned; diastereomer 2)	12	
CCc1cc(Oc2cccc3c2CCC(c2cccc(OC(F)(F)C(F)F)c2)N3CC(O)C(F)(F)F)ccc1Cl (single isomer, unassigned; diastereomer 2)	86	
OC(CCl)CN1c2cccc(-c3cccc(OC(F)(F)F)c3)c2CCC1c1cccc(OC(F)(F)F)c1 (single isomer, unassigned; diastereomer 2)	0	

SMILES	inhibition [1] [%]	IC50 [2] [nM]
OC(CF)CN1c2cccc(-c3cccc(OC(F)(F)F)c3)c2CCC1c1cccc(OC(F)(F)F)c1 (single isomer, unassigned; diastereomer 2)	13	
OC(CN1c2cccc(-c3cccc(C(F)(F)F)c3)c2CCC1c1cccc(OC(F)(F)C(F)F)c1)C(F)(F)F (single isomer, unassigned; diastereomer 2)	37	
OC(CN1c2cccc(-c3cccc(Cl)c3Cl)c2CCC1c1cccc(OC(F)(F)C(F)F)c1)C(F)(F)F (single isomer, unassigned; diastereomer 2) [listing 2 of 2 here]	86	
OC(CN1c2cccc(-c3cccc(OC(F)(F)F)c3)c2CCC1c1cccc(C(F)(F)F)c1)C(F)(F)F (single isomer, unassigned; diastereomer 2)	37	
OC(CN1c2cccc(-c3cccc(OC(F)(F)F)c3)c2CCC1c1ccccc1)C(F)(F)F (single isomer, unassigned; diastereomer 2)	6	
OC(CN1c2cccc(-c3cccc(OC(F)(F)F)c3)c2CCC1c1cccs1)C(F)(F)F (single isomer, unassigned; diastereomer 2)	12	
CC(C)C(O)CN1c2cccc(-c3cccc(OC(F)(F)F)c3)c2CCC1c1cccc(OC(F)(F)F)c1 (single isomer, unassigned; form 1)	79	
OC(CN1c2cccc(-c3cccc(OC(F)(F)F)c3)c2CCC1C1CCCCC1)C(F)(F)F (single isomer, unassigned; form 1)	2	
CC(C)C(O)CN1c2cccc(-c3cccc(OC(F)(F)F)c3)c2CCC1c1cccc(OC(F)(F)F)c1 (single isomer, unassigned; form 2)	0	
OC(CN1c2cccc(-c3cccc(OC(F)(F)F)c3)c2CCC1C1CCCCC1)C(F)(F)F (single isomer, unassigned; form 2)	13	
OC(CN1c2cccc(-c3cccc(Cl)c3Cl)c2CCC1c1cccc(OC(F)(F)C(F)F)c1)C(F)(F)F (stereo in doubt; 17)	67	
OC(CN1c2cccc(-c3cccc(OC(F)(F)F)c3)c2CCC1c1ccc(OC(F)(F)C(F)F)cc1)C(F)(F)F (stereo in doubt; 41)	14	
OC(CN1c2cccc(-c3cccc(OC(F)(F)F)c3)c2CCC1c1cccc(C(F)(F)F)c1)C(F)(F)F (stereo in doubt; 48) [listing 1 of 2 here]		143
OC(CN1c2cccc(-c3cccc(OC(F)(F)F)c3)c2CCC1c1cccc(C(F)(F)F)c1)C(F)(F)F (stereo in doubt; 48) [listing 2 of 2 here]	50	
OC(CN1c2cccc(-c3cccc(OC(F)(F)F)c3)c2CCC1c1cccc(OC(F)(F)F)c1)C(F)(F)F (stereo in doubt; 52) [listing 1 of 2 here]		125
OC(CN1c2cccc(-c3cccc(OC(F)(F)F)c3)c2CCC1c1cccc(OC(F)(F)F)c1)C(F)(F)F (stereo in doubt; 52) [listing 2 of 2 here]	68	
OC(CN1c2cccc(-c3cccc(OC(F)(F)F)c3)c2CCC1c1cccc(OC(F)(F)F)c1)C(F)(F)F (stereo in doubt; 53)	34	

More lines, now with the values ahead:

inhibition [1] [%]	IC50 [2] [nM]	SMILES
	33	OC(CN1c2cccc(-c3cccc(OC(F)(F)F)c3)c2CCC1c1cccc(OC(F)(F)C(F)F)c1)C(F)(F)F (single isomer, unassigned; 19) [listing 1 of 2 here]
100		OC(CN1c2cccc(-c3cccc(OC(F)(F)F)c3)c2CCC1c1cccc(OC(F)(F)C(F)F)c1)C(F)(F)F (single isomer, unassigned; 19) [listing 2 of 2 here]
	300	OC(CN1c2cccc(-c3cccc(OC(F)(F)F)c3)c2CCC1c1cccc(OC(F)(F)C(F)F)c1)C(F)(F)F (single isomer, unassigned; 20) [listing 1 of 2 here]
86		OC(CN1c2cccc(-c3cccc(OC(F)(F)F)c3)c2CCC1c1cccc(OC(F)(F)C(F)F)c1)C(F)(F)F (single isomer, unassigned; 20) [listing 2 of 2 here]
9		OC(CN1c2cccc(-c3cccc(OC(F)(F)F)c3)c2CCC1c1cccc(OC(F)(F)C(F)F)c1)C(F)(F)F (single isomer, unassigned; 38)
0		OC(CN1c2cccc(-c3cccc(OC(F)(F)F)c3)c2CCC1c1cccc(OC(F)(F)C(F)F)c1)C(F)(F)F (single isomer, unassigned; 39)
	64	OC(CN1c2cccc(-c3cccc(Cl)c3)c2CCC1c1cccc(OC(F)(F)C(F)F)c1)C(F)(F)F (single isomer, unassigned; diastereomer 1) [listing 1 of 2 here]
	126	COc1cccc(-c2cccc3c2CCC(c2cccc(OC(F)(F)C(F)F)c2)N3CC(O)C(F)(F)F)c1 (single isomer, unassigned; diastereomer 1) [listing 1 of 2 here]
	117	OC(CN1c2cccc(-c3cccc(F)c3)c2CCC1c1cccc(OC(F)(F)C(F)F)c1)C(F)(F)F (single isomer, unassigned; diastereomer 1) [listing 1 of 2 here]
68		COc1cccc(-c2cccc3c2CCC(c2cccc(OC(F)(F)C(F)F)c2)N3CC(O)C(F)(F)F)c1 (single isomer, unassigned; diastereomer 1) [listing 2 of 2 here]
85		N#Cc1cccc(-c2cccc3c2CCC(c2cccc(OC(F)(F)C(F)F)c2)N3CC(O)C(F)(F)F)c1 (single isomer, unassigned; diastereomer 1) [listing 2 of 2 here]
67		OC(CN1c2cccc(-c3cccc(Cl)c3)c2CCC1c1cccc(OC(F)(F)C(F)F)c1)C(F)(F)F (single isomer, unassigned; diastereomer 1) [listing 2 of 2 here]
93		OC(CN1c2cccc(-c3cccc(F)c3)c2CCC1c1cccc(OC(F)(F)C(F)F)c1)C(F)(F)F (single isomer, unassigned; diastereomer 1) [listing 2 of 2 here]
38		COc1cccc(-c2cccc3c2CCC(c2cccc(OC(F)(F)C(F)F)c2)N3CC(O)C(F)(F)F)c1 (single isomer, unassigned; diastereomer 2)
21		N#Cc1cccc(-c2cccc3c2CCC(c2cccc(OC(F)(F)C(F)F)c2)N3CC(O)C(F)(F)F)c1 (single isomer, unassigned; diastereomer 2)
55		OC(CN1c2cccc(-c3cccc(Cl)c3)c2CCC1c1cccc(OC(F)(F)C(F)F)c1)C(F)(F)F (single isomer, unassigned; diastereomer 2)
52		OC(CN1c2cccc(-c3cccc(F)c3)c2CCC1c1cccc(OC(F)(F)C(F)F)c1)C(F)(F)F (single isomer, unassigned; diastereomer 2)
